Legend:
[1] = tested on: jasmonic acid biosynthesis; test: GEP, induction pattern of the jasmonic acid biosynthesis genes; assay type: in vivo, barley; conditions: compared with the other safeners and resistance inductors
Protocol: Barley plants (cv. Baronesse) were grown in compost-filled pots (diameter: 10 cm) for 10 days in a controlled-environment cabinet under defined light, humidity and temperature conditions (white light, 70% atmospheric humidity, 24° C.). At the time of spray application, the seedlings were approximately 15 cm in size. The test substances selected in this example were molecules which differ markedly in their structure and which have a well documented pronounced safener effect, and other molecules which are known from the literature to have an effect on plant stress and pathogen tolerance (Table 1). The substances were prepared as stock solutions in DMSO (dimethyl sulfoxide) at c=10 mg/ml). This was used for preparing dilutions in water supplemented with 0.2% Agrotin (comprises polyvinyl alcohol, silicones, polysaccharides and pH regulators, manufacturer: Bayer CropScience AG, Monheim, Germany), as wetter, to give the application rates shown in the table. The amount of liquid for the spray application was 800 μl per pot, corresponding to 800 l/ha. For each 800 μl of spray mixture, 16 μl of EC premix: diacetone alcohol=1:6 were additionally added as formulation auxiliaries. The substances listed in Table 1 were applied to the leaves by means of a pneumatic spray pistol. […] The fluorescent data obtained were analyzed with the software Microarray Suite 5 from Affymetrix. […]

[2] = tested on: Rhopalosiphum padi; test: Repellent effect of safener-treated plants on phytopathogenic insects; assay type: in vivo; conditions: barley sprayed with 150 g a.i./ha, infested 6 h or 24 h after application, average
Protocol: Barley plants (cv. Baronesse) were grown as described in Example 1 and, after 10 days, treated by spray application with 150 g a.i./ha of isoxadifen-ethyl (S 3) or blank formulation. The experiments were carried out in replications of in each case 10 pots.
6 hours or 24 hours after the substance had been applied, all pots were infested uniformly with a population of the phytopathogenic aphid Rhopalosiphum padi. The experiments were evaluated after 7 days and 14 days by counting the animals on the leaves.

[3] = tested on: aphids; test: Plant-free Sachez test, direct toxicity; assay type: in vivo
Excerpt: A direct toxicity of isoxadifen-ethyl (S3) against aphids was not detected in the plant-free Sachez test.

[4] = tested on: Jasmonate (JA); test: Jasmonate (JA) concentration in leaves of treated plants, GC-MS/MS; assay type: in vivo, barley
Protocol: Barley plants (cv. Baronesse) were grown under the conditions described in Example 1 and treated by spray application with safener isoxadifen-ethyl (S 3). The application rates were chosen as follows:
(1) 30 [g a.i./ha]; (2) 150 [g a.i./ha]; (3) blank formulation (no active ingredient)
The plant leaves were harvested at different points in time after the treatment (h=hours), viz. after 1 h, 2 h, 4 h, 6 h, 12 h, 24 h and 48 h. All samples were designed in each case as replications of 3 pots.
The octadecanoates and jasmonates were processed from the leaves following a procedure described in the literature (Müller A, Düchting P and Weiler E W (2002)), A multiplex GC-MS/MS technique for the sensitive and quantitative single-run analysis of acidic phytohormones and related compounds, and its application to Arabidopsis thaliana. Planta, 216, 44-56).
300 mg of plant material were extracted for each measuring point.
50 pmol [^13C]2-JA and 100 pmol [17,17,17,18,18-^2H]-cis-OPDA were applied as internal standards. The extracts were purified via aminopropyl anion-exchange chromatography in miniature solid-phase exchanger columns which had been prepared in-house.
The results are shown in Tables 3a to 3d, the values shown being in each case means of the 3 applications.

[5] = tested on: Jasmonate (JA); test: as above; assay type: in vivo, barley; conditions: 0 hours

CCOC(=O)C1=NOC(c2ccccc2)(c2ccccc2)C1 [S3, Isoxadifen-ethyl]
Effect on jasmonic acid biosynthesis (induction pattern) [1]: most pronounced | Aphid populations less than the controls ([2]; after 7 days): 50% | Aphid populations less than the controls ([2]; after 14 days): 70% | Direct toxicity against aphids [3]: not detected | Jasmonate (JA) concentration ([4]; 30 g a.i/ha, 1 hour): 600 pmol/g leaf tissue | Jasmonate (JA) concentration ([4]; 30 g a.i/ha, 2 hours): 320 pmol/g leaf tissue | Jasmonate (JA) concentration ([4]; 30 g a.i/ha, 4 hours): 790 pmol/g leaf tissue | Jasmonate (JA) concentration ([4]; 30 g a.i/ha, 6 hours): 620 pmol/g leaf tissue | Jasmonate (JA) concentration ([4]; 150 g a.i./ha, 1 hour): 290 pmol/g leaf tissue | Jasmonate (JA) concentration ([4]; 150 g a.i./ha, 2 hours): 280 pmol/g leaf tissue | Jasmonate (JA) concentration ([4]; 150 g a.i./ha, 4 hours): 270 pmol/g leaf tissue | Jasmonate (JA) concentration ([4]; 150 g a.i./ha, 6 hours): 275 pmol/g leaf tissue | Jasmonate (JA) concentration ([4]; 150 g a.i./ha, 12 hours): 155 pmol/g leaf tissue | Jasmonate (JA) concentration ([4]; 150 g a.i./ha, 24 hours): 265 pmol/g leaf tissue | Jasmonate (JA) concentration ([4]; 150 g a.i./ha, 48 hours): 320 pmol/g leaf tissue | Increase in JA concentration relative to blank formulation samples ([4]; maximum over rates and times): ≤ 5 times | Jasmonate (JA) concentrations, range over the experiment ([4]; summary of Tables 3c, 3d, all rates and times): 70-800 pmol/g leaf tissue | Jasmonate (JA) concentration ([5]; 30 g a.i/ha): 140 pmol/g leaf tissue | Jasmonate (JA) concentration ([5]; 150 g a.i./ha): 140 pmol/g leaf tissue

From patent US20070265164A1, “Active Substances for Increasing Pathogenic Defense in Plants and Methods for the Detection Thereof” (Bayer Cropscience GmbH, priority 2004, published 2007)
